Experimental data published in patent US10124004B2, “Pyrido[3,4-d]pyrimidine derivative and pharmaceutically acceptable salt thereof” (Teijin Pharma Limited, priority 2015, dated 2018).

How the values were obtained:
CDK4/cyclin D3 = biological target: T1, CDK4/cyclin D3 (Homo sapiens, UniProt P11802); experiment: Human CDK4/cyclin D3 inhibitory activity (QS S Assist CDK4/Cyclin D3_FP Kit, IMAP fluorescence polarization); format: biochemical; conditions: Human CDK4/cyclin D3 inhibitory activity; read-out: CDK4 Activity symbol
T1 construct: purchased Carna Biosciences, Inc. QS S Assist CDK4/Cyclin D3_FP Kit
In short: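 IMAP fluorescence polarization kit: CDK4/cyclin D3 at 12.5-25 ng/well with kit ATP/substrate/metal mix in 20 mM HEPES pH 7.4, 0.01% Tween20, 2 mM DTT, 45 min at room temperature. FP read at 485/535 nm after 30 min binding; IC50 from dose-response fit of percent inhibition versus enzyme and no-enzyme controls.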

CDK2/cyclin A2 = biological target: T2, CDK2/cyclin A2 (Homo sapiens, UniProt P24941); experiment: Human CDK2/cyclin A2 inhibitory activity (QS S Assist CDK2/Cyclin A2_FP Kit, IMAP fluorescence polarization); format: biochemical; conditions: Human CDK2/cyclin A2 inhibitory activity; read-out: CDK2 Activity symbol
T2 construct: purchased Carna Biosciences, Inc. QS S Assist CDK2/Cyclin A2_FP Kit
In short: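 Kinase activity read as fluorescence polarization (485/535 nm) after phosphorylated fluorescent substrate binds IMAP reagent (30 min, RT, dark). Enzyme (2.5 ng/well) reacted 60 min at RT with ATP/substrate/metal in HEPES pH 7.4 buffer with Tween 20 and DTT; no-enzyme wells define 0% activity; IC50 by curve fit.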

T1 sequence (P11802 whole entry): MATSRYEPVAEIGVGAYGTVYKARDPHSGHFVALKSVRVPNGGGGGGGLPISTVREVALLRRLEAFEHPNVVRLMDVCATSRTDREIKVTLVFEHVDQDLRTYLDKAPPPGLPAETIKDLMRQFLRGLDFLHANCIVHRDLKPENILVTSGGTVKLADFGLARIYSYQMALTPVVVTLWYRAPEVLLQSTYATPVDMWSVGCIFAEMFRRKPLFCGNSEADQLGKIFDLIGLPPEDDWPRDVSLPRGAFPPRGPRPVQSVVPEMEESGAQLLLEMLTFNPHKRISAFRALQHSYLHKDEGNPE
T1 sequence (P30281 whole entry partner): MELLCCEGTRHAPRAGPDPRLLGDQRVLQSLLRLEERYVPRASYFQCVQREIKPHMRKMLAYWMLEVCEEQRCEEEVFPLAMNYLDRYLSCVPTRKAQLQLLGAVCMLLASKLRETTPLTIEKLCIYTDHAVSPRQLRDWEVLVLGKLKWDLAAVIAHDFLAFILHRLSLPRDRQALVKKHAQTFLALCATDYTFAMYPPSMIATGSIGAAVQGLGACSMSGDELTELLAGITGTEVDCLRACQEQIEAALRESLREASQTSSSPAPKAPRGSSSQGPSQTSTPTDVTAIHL

Structure (SMILES)	IC50 (CDK4/cyclin D3) [nM]	IC50 (CDK2/cyclin A2) [nM]
CO[C@H](C)c1cc2cnc(Nc3ccc(N4CCNCC4)nn3)nc2c(N[C@@H]2CCCOC2)n1 [Compound 305]	< 10	≥ 100
CO[C@H](C)c1cc2cnc(Nc3ccc(N4CCNCC4)nn3)nc2c(N[C@H]2CCOC2)n1 [Compound 306]	10 to 100	≥ 100
CO[C@H](C)c1cc2cnc(Nc3ccc(N4CCNCC4)nn3)nc2c(N[C@@H]2CCOC2)n1 [Compound 307]	< 10	≥ 100
C[C@@H](O)c1cc2cnc(Nc3ccc(N4CCNCC4)nn3)nc2c(NC2CCCCC2C(=O)O)n1 (some centres unmarked) [Compound 308]	≥ 100	≥ 100
CCO[C@H](C)c1cc2cnc(Nc3ccc(N4CCNCC4)nn3)nc2c(NC(C)C)n1 [Compound 310]	< 10	≥ 100
CO[C@H](C)c1cc2cnc(Nc3ccc(C4CCNCC4)nn3)nc2c(NC(C)C)n1 [Compound 311]	< 10	≥ 100
C[C@@H](O)c1cc2cnc(Nc3ccc(CN4CCNCC4)cn3)nc2c(NCC2CCOCC2)n1 [Compound 312]	< 10	≥ 100
C[C@@H](O)c1cc2cnc(Nc3ccc(CN4CCNCC4)cn3)nc2c(NC2CCS(=O)(=O)CC2)n1 [Compound 314]	< 10	≥ 100
C[C@@H](O)c1cc2cnc(Nc3ccc(N4CCNCC4)nn3)nc2c(NC(C)(C)C(=O)O)n1 [Compound 315]	≥ 100	≥ 100
C[C@@H](O)c1cc2cnc(Nc3ccc(N4CCNCC4)nn3)nc2c(NC2(C(=O)O)CCCC2)n1 [Compound 316]	≥ 100	≥ 100
CC(C)Nc1nc([C@@H](C)O)cc2cnc(Nc3ccc(C4CCNCC4)nn3)nc12 [Compound 318]	< 10	≥ 100
CO[C@H](C)c1cc2cnc(Nc3ccc(CN4CCNCC4)cn3)nc2c(NCC2CCOC2)n1 (some centres unmarked) [Compound 320]	< 10	≥ 100
CO[C@H](C)c1cc2cnc(Nc3ccc(N4CCNCC4)nn3)nc2c(NCC2CCOC2)n1 (some centres unmarked) [Compound 321]	< 10	≥ 100
C[C@@H](O)c1cc2cnc(Nc3ccc(N4CCNCC4)nn3)nc2c(NC2CCS(=O)(=O)CC2)n1 [Compound 322]	10 to 100	≥ 100
C[C@@H](O)c1cc2cnc(Nc3ccc(CN4CCNCC4)cn3)nc2c(NC2CCCC2C(=O)O)n1 (some centres unmarked) [Compound 324]	≥ 100	≥ 100
C[C@@H](O)c1cc2cnc(Nc3ccc(CN4CCNCC4)cn3)nc2c(NC2(C(=O)O)CCCC2)n1 [Compound 325]	10 to 100	≥ 100
CC(=O)c1cc2cnc(Nc3ccc(N4CCNCC4)nn3)nc2c(NC(C)C)n1 [Compound 328]	< 10	≥ 100

Structure (SMILES)	IC50 (CDK4/cyclin D3) [nM]	IC50 (CDK2/cyclin A2) [nM]
CC(=O)c1cc2cnc(Nc3ccc(CN4CCNCC4)cn3)nc2c(NC(C)C)n1 [Compound 329]	< 10	≥ 100
CC(=O)c1cc2cnc(Nc3ccc(N4CCNCC4)nn3)nc2c(NC2CCOCC2)n1 [Compound 330]	< 10	≥ 100
CO[C@H](C)c1cc2cnc(Nc3ccc(C4CCCNC4)cn3)nc2c(NC(C)C)n1 (some centres unmarked) [Compound 332]	< 10	≥ 100
CO[C@H](C)c1cc2cnc(Nc3ccc(N4CCC(O)C4)nn3)nc2c(NC(C)C)n1 (some centres unmarked) [Compound 334]	10 to 100	≥ 100
CO[C@H](C)c1cc2cnc(Nc3ccc(N4CCN(C(=O)CO)CC4)nn3)nc2c(NC(C)C)n1 [Compound 335]	< 10	≥ 100
CO[C@H](C)c1cc2cnc(Nc3ccc(N4CCNCC4)nn3)nc2c(N[C@H]2CC[C@H](C(=O)O)CC2)n1 [Compound 339]	10 to 100	≥ 100
C[C@@H](O)c1cc2cnc(Nc3ccc(CN4CCNCC4)cn3)nc2c(N[C@H]2CC[C@H](C(=O)O)CC2)n1 [Compound 342]	< 10	≥ 100
CO[C@H](C)c1cc2cnc(Nc3ccc(CN4CCNCC4)cn3)nc2c(N[C@H]2CC[C@H](C(=O)O)CC2)n1 [Compound 343]	< 10	≥ 100
CC(O)c1cc2cnc(Nc3ccc(N4CCNCC4=O)cn3)nc2c(NC2CCCOC2)n1 (centres unmarked) [Compound 346]	< 10	≥ 100
C[C@@H](O)c1cc2cnc(Nc3ccc(N4CCNCC4=O)cn3)nc2c(N[C@@H]2CCOC2)n1 [Compound 348]	< 10	≥ 100
C[C@@H](O)c1cc2cnc(Nc3ccc(N4CCNCC4=O)cn3)nc2c(N[C@H]2CCOC2)n1 [Compound 349]	10 to 100	≥ 100
C[C@@H](O)c1cc2cnc(Nc3ccc(N4CCN(C=O)CC4=O)cn3)nc2c(N[C@@H]2CCCOC2)n1 [Compound 351]	< 10	≥ 100
C[C@@H](O)c1cc2cnc(Nc3ccc(N4CCN(C=O)CC4=O)cn3)nc2c(N[C@H]2CCCOC2)n1 [Compound 352]	< 10	≥ 100
C[C@@H](O)c1cc2cnc(Nc3ccc(N4CCN(C=O)CC4=O)cn3)nc2c(NC2CCOCC2)n1 [Compound 355]	< 10	≥ 100
CO[C@H](C)c1cc2cnc(Nc3ccc(CN4CCNCC4)cn3)nc2c(NCC2CCOCC2)n1 [Compound 360]	< 10	≥ 100
FC(F)c1cc2cnc(Nc3ccc(CN4CCNCC4)cn3)nc2c(NC2CCOCC2)n1 [Compound 364]	< 10	10 to 100

More lines, now with the values ahead:

IC50 (CDK4/cyclin D3) [nM]	IC50 (CDK2/cyclin A2) [nM]	Structure (SMILES)
10 to 100	≥ 100	COCC(C)(C)Nc1nc([C@@H](C)O)cc2cnc(Nc3ccc(CN4CCN(CC(F)F)CC4)cn3)nc12 [Compound 299]
< 10	≥ 100	CO[C@H](C)c1cc2cnc(Nc3ccc(CN4CCNCC4)cn3)nc2c(N[C@@H]2CCCOC2)n1 [Compound 301]
< 10	≥ 100	CO[C@H](C)c1cc2cnc(Nc3ccc(CN4CCNCC4)cn3)nc2c(N[C@@H]2CCOC2)n1 [Compound 303]
≥ 100	≥ 100	C[C@@H](O)c1cc2cnc(Nc3ccc(N4CCNCC4)nn3)nc2c(NC2CCCC2C(=O)O)n1 (some centres unmarked) [Compound 309]
< 10	≥ 100	C[C@@H](O)c1cc2cnc(Nc3ccc(N4CCNCC4)nn3)nc2c(NCC2CCOCC2)n1 [Compound 313]
< 10	≥ 100	C[C@@H](O)c1cc2cnc(Nc3ccc(C4CCNCC4)nn3)nc2c(NC2CCOCC2)n1 [Compound 317]
< 10	≥ 100	CC(C)Nc1nc([C@@H](C)O)cc2cnc(Nc3ccc(N4CCN(C=O)CC4=O)cn3)nc12 [Compound 319]
< 10	≥ 100	C[C@@H](O)c1cc2cnc(Nc3ccc(CN4CCNCC4)cn3)nc2c(NCC2CCOC2)n1 (some centres unmarked) [Compound 323]
< 10	≥ 100	C[C@@H](O)c1nc(NC2CCOCC2)c2nc(Nc3ccc(CN4CCNCC4)cn3)ncc2c1Cl [Compound 326]
10 to 100	≥ 100	C[C@@H](O)c1cc2cnc(Nc3ccc(N4CCNCC4)nn3)nc2c(NC(C)(C)CC(=O)O)n1 [Compound 327]
≥ 100	≥ 100	CO[C@H](C)c1cc2cnc(Nc3ccc(-c4cccnc4)cn3)nc2c(NC(C)C)n1 [Compound 331]
< 10	≥ 100	COCC(C)(C)Nc1nc([C@@H](C)O)cc2cnc(Nc3ccc(C4CCCNC4)cn3)nc12 (some centres unmarked) [Compound 333]
< 10	≥ 100	CO[C@H](C)c1cc2cnc(Nc3ccc(NC4CCNCC4)nn3)nc2c(NC(C)C)n1 [Compound 336]
< 10	≥ 100	C[C@@H](O)c1nc(NC2CCOCC2)c2nc(Nc3ccc(N4CCNCC4)nn3)ncc2c1Cl [Compound 337]
< 10	≥ 100	C[C@@H](O)c1cc2cnc(Nc3ccc(N4CCNCC4)nn3)nc2c(N[C@H]2CC[C@H](C(=O)O)CC2)n1 [Compound 338]
< 10	≥ 100	C[C@@H](O)c1cc2cnc(Nc3ccc(N4CCNCC4)nn3)nc2c(N[C@H]2CC[C@H](O)CC2)n1 [Compound 340]
< 10	≥ 100	CO[C@H](C)c1cc2cnc(Nc3ccc(N4CCNCC4)nn3)nc2c(N[C@H]2CC[C@H](O)CC2)n1 [Compound 341]
< 10	≥ 100	C[C@@H](O)c1cc2cnc(Nc3ccc(CN4CCNCC4)cn3)nc2c(N[C@H]2CC[C@H](O)CC2)n1 [Compound 344]
< 10	≥ 100	CO[C@H](C)c1cc2cnc(Nc3ccc(CN4CCNCC4)cn3)nc2c(N[C@H]2CC[C@H](O)CC2)n1 [Compound 345]
< 10	≥ 100	C[C@@H](O)c1cc2cnc(Nc3ccc(N4CCNCC4=O)cn3)nc2c(N[C@H]2CCCOC2)n1 [Compound 347]
< 10	≥ 100	C[C@@H](O)c1cc2cnc(Nc3ccc(N4CCNCC4=O)cn3)nc2c(NC2CCOCC2)n1 [Compound 350]
< 10	≥ 100	C[C@@H](O)c1cc2cnc(Nc3ccc(N4CCN(C=O)CC4=O)cn3)nc2c(N[C@@H]2CCOC2)n1 [Compound 353]
10 to 100	≥ 100	C[C@@H](O)c1cc2cnc(Nc3ccc(N4CCN(C=O)CC4=O)cn3)nc2c(N[C@H]2CCOC2)n1 [Compound 354]
< 10	≥ 100	CO[C@H](C)c1cc2cnc(Nc3ccc(N4CCNCC4)nn3)nc2c(NCC2CCOCC2)n1 [Compound 358]
< 10	≥ 100	FC(F)c1cc2cnc(Nc3ccc(N4CCNCC4)nn3)nc2c(NC2CCOCC2)n1 [Compound 365]
